From ChEMBL document CHEMBL3120080, “Characterization of lovastatin-docosahexaenoate anticancer properties against breast cancer cells” (Bioorg Med Chem, 2014)
Active and inactive are the calls of the source. No cut-off for these calls is given here.

How the values were obtained:
[1] = test system: MDA-MB-231; assay: Cell cycle arrest in PR, ER, HER2-negative human MDA-MB-231 cells assessed as accumulation at G2/M phase at 1 uM after 30 hrs by flow cytometer (reference value: 17.1 +/-2.1%); type: functional
[2] = test system: MDA-MB-231; assay: Induction of apoptosis in human MDA-MB-231 cells assessed as viable cells at 5 uM after 48 hrs by annexin V/propidium iodide based flow cytometry (reference value: 93.2 +/-0.9%); type: functional; conditions: MDA-MB-231, 48 h, read-out: Activity
[3] = test system: MDA-MB-468; assay: Cytotoxicity against PR, ER, HER2-negative human MDA-MB-468 cells at >7.5 uM after 48 hrs by WST-1 assay; type: functional, cell-based
[4] = test system: MDA-MB-231; assay: Cytotoxicity against PR, ER, HER2-negative human MDA-MB-231 cells assessed as decrease in cell viability at >5 uM after 48 hrs by WST-1 assay; type: functional, cell-based
[5] = test system: MDA-MB-231; assay: Induction of apoptosis in human MDA-MB-231 cells assessed as necrotic cells at 1 uM after 48 hrs by annexin V/propidium iodide based flow cytometry (reference value: 4.4 +/-0.4%); type: functional
[6] = test system: MDA-MB-231; assay: Cell cycle arrest in PR, ER, HER2-negative human MDA-MB-231 cells assessed as accumulation at G0/G1 phase at 10 uM after 30 hrs by flow cytometer (reference value: 49.8 +/-1.5%); type: functional
[7] = test system: Serum; assay: Stability of the compound in mouse serum at 1 mM after 2 hrs by RP-HPLC analysis; type: ADME; conditions: 1000 µM
[8] = test system: MDA-MB-231; assay: Growth inhibition of PR, ER, HER2-negative human MDA-MB-231 cells at 1 uM after 48 hrs by WST-1 assay in presence of mevalonate; type: functional, cell-based
[9] = test system: MDA-MB-231; assay: Cell cycle arrest in PR, ER, HER2-negative human MDA-MB-231 cells assessed as accumulation at G2/M phase at 10 uM after 30 hrs by flow cytometer (reference value: 17.1 +/-2.1%); type: functional
[10] = test system: HMEC; assay: Cytotoxicity against human HMEC at >15 uM after 48 hrs by WST-1 assay; type: cell-based
[11] = test system: MDA-MB-231; assay: Stability of the compound in human MDA-MB-231 cells assessed as DHA content at 5 uM after 24 hrs by gas chromatography; type: ADME, cell-based; conditions: mda-mb-231, 24 h
[12] = test system: AU565; assay: Cytotoxicity against ER-negative, HER2-positive human AU565 cells after 48 hrs by WST-1 assay; type: functional, cell-based
[13] = test system: HMEC; assay: Cytotoxicity against human HMEC at 25 uM after 48 hrs by WST-1 assay; type: cell-based
[14] = test system: MDA-MB-231; assay: Cell cycle arrest in PR, ER, HER2-negative human MDA-MB-231 cells assessed as accumulation at S phase at 1 uM after 30 hrs by flow cytometer (reference value: 33.1 +/-0.3%); type: functional
[15] = test system: AU565; assay: Growth inhibition of ER-negative, HER2-positive human AU565 cells at >5 uM after 48 hrs by WST-1 assay; type: functional, cell-based
[16] = test system: MDA-MB-231; assay: Cell cycle arrest in PR, ER, HER2-negative human MDA-MB-231 cells assessed as accumulation at G0/G1 phase at 1 uM after 30 hrs by flow cytometer (reference value: 49.8 +/-1.5%); type: functional
[17] = test system: MDA-MB-231; assay: Induction of apoptosis in human MDA-MB-231 cells assessed as necrotic cells at 5 uM after 48 hrs by annexin V/propidium iodide based flow cytometry (reference value: 4.4 +/-0.4%); type: functional
[18] = test system: MCF7; assay: Growth inhibition of ER-positive, HER2-negative human MCF7 cells after 48 hrs by WST-1 assay; type: functional, cell-based
[19] = test system: MDA-MB-231; assay: Induction of apoptosis in human MDA-MB-231 cells assessed as apoptotic cells at 5 uM after 48 hrs by annexin V/propidium iodide based flow cytometry (reference value: 2.4 +/-0.5%); type: functional
[20] = test system: MDA-MB-231; assay: Cell cycle arrest in PR, ER, HER2-negative human MDA-MB-231 cells assessed as accumulation at S phase at 10 uM after 30 hrs by flow cytometer (reference value: 33.1 +/-0.3%); type: functional
[21] = test system: MDA-MB-231; assay: Induction of apoptosis in human MDA-MB-231 cells assessed as apoptotic cells at 1 uM after 48 hrs by annexin V/propidium iodide based flow cytometry (reference value: 2.4 +/-0.5%); type: functional
[22] = test system: MDA-MB-231; assay: Induction of apoptosis in human MDA-MB-231 cells assessed as necrotic cells at 10 uM after 48 hrs by annexin V/propidium iodide based flow cytometry (reference value: 4.4 +/-0.4%); type: functional
[23] = test system: MDA-MB-361; assay: Cytotoxicity against ER-positive, HER2-positive human MDA-MB-361 cells at higher concentration after 48 hrs by WST-1 assay; type: functional, cell-based
[24] = test system: MDA-MB-231; assay: Downregulation of p21 expression in human PR, ER, HER2-negative human MDA-MB-231 cells at 10 uM after 24 hrs by western blot analysis; type: functional, cell-based
[25] = test system: MDA-MB-231; assay: Induction of apoptosis in human MDA-MB-231 cells assessed as viable cells at 10 uM after 48 hrs by annexin V/propidium iodide based flow cytometry (reference value: 93.2 +/-0.9%); type: functional; conditions: MDA-MB-231, 48 h, read-out: Activity
[26] = test system: MDA-MB-231; assay: Induction of apoptosis in human MDA-MB-231 cells assessed as apoptotic cells at 10 uM after 48 hrs by annexin V/propidium iodide based flow cytometry (reference value: 2.4 +/-0.5%); type: functional
[27] = test system: MDA-MB-231; assay: Induction of apoptosis in human MDA-MB-231 cells assessed as viable cells at 1 uM after 48 hrs by annexin V/propidium iodide based flow cytometry (reference value: 93.2 +/-0.9%); type: functional; conditions: MDA-MB-231, 48 h, read-out: Activity
[28] = test system: MDA-MB-231; assay: Growth inhibition of PR, ER, HER2-negative human MDA-MB-231 cells at <25 uM after 48 hrs by WST-1 assay; type: functional, cell-based
[29] = test system: HMEC; assay: Cytotoxicity against human HMEC assessed as growth inhibition after 48 hrs by WST-1 assay; type: cell-based
[30] = test system: MDA-MB-468; assay: Growth inhibition of PR, ER, HER2-negative human MDA-MB-468 cells after 48 hrs by WST-1 assay; type: functional, cell-based
[31] = test system: AU565; assay: Total growth inhibition of ER-negative, HER2-positive human AU565 cells at >15 uM after 48 hrs by WST-1 assay; type: functional, cell-based
[32] = test system: MDA-MB-361; assay: Growth inhibition of ER-positive, HER2-positive human MDA-MB-361 cells after 48 hrs by WST-1 assay; type: functional, cell-based
[33] = test system: MDA-MB-231; assay: Cytotoxicity against PR, ER, HER2-negative human MDA-MB-231 cells after 48 hrs by WST-1 assay; type: functional, cell-based
[34] = test system: MDA-MB-231; assay: Total growth inhibition of PR, ER, HER2-negative human MDA-MB-231 cells at >10 uM after 48 hrs by WST-1 assay; type: functional, cell-based
[35] = test system: MDA-MB-468; assay: Total growth inhibition of PR, ER, HER2-negative human MDA-MB-468 cells after 48 hrs by WST-1 assay; type: functional, cell-based
[36] = test system: MDA-MB-468; assay: Cytotoxicity against PR, ER, HER2-negative human MDA-MB-468 cells after 48 hrs by WST-1 assay; type: functional, cell-based
[37] = test system: AU565; assay: Growth inhibition of ER-negative, HER2-positive human AU565 cells after 48 hrs by WST-1 assay; type: functional, cell-based
[38] = test system: MCF7; assay: Total growth inhibition of ER-positive, HER2-negative human MCF7 cells after 48 hrs by WST-1 assay; type: functional, cell-based
[39] = test system: MDA-MB-231; assay: Induction of p21 expression in human PR, ER, HER2-negative human MDA-MB-231 cells at 1 to 10 uM after 24 hrs by western blot analysis; type: functional, cell-based
[40] = test system: MDA-MB-231; assay: Growth inhibition of PR, ER, HER2-negative human MDA-MB-231 cells after 48 hrs by WST-1 assay in presence of geranylgeranyl pyrophosphate; type: functional, cell-based

Structure (SMILES) | Activity [1] | viability at 5 µM [2] | Activity [5] | Activity [6] | growth inhibition (GI) [8] | Activity [9] | Activity [14] | Activity [16] | Activity [17] | growth inhibition (GI) [18] | Activity [19] | Activity [20] | Activity [21] | Activity [22] | inhibition [24] | viability at 10 µM [25] | Activity [26] | viability at 1 µM [27] | Activity [29] | growth inhibition (GI) [32] | also measured
CC/C=C\C/C=C\C/C=C\C/C=C\C/C=C\C/C=C\CCC(=O)O[C@H]1CC(=O)O[C@H](CC[C@@H]2[C@@H]3C(=C[C@H](C)C[C@@H]3OC(=O)[C@@H](C)CC)C=C[C@@H]2C)C1 | 17.3% | 83.3% | 6.7% | 51.2% | Active | 14.1% | 34.9% | 47.8% | 9.6% | Active | 7.2% | 34.8% | 9.2% | 35.4% | Active | 40% | 24.6% | 84.1% |  |  | Activity [3]: Active; Activity [4]: Active; Stability [7]: Stable; Activity [10]: Toxic; Stability [11]: Stable; Activity [12]: inactive; Activity [13]: 25%; growth inhibition (GI) [15]: Active; Activity [23]: Active
CC/C=C\C/C=C\C/C=C\C/C=C\C/C=C\C/C=C\CCC(=O)O [DOCONEXENT] | 17.5% | 96.5% | 2.9% | 50.8% |  | 16.2% | 33.8% | 48.7% | 2.4% | Active | 1.1% | 33% | 2.6% | 5.6% | Active | 92.5% | 1.9% | 94.5% | Dose-dependent effect | Active | growth inhibition (GI) [28]: Active; growth inhibition (GI) [30]: Active; TGI [31]: Active
CC[C@H](C)C(=O)O[C@H]1C[C@@H](C)C=C2C=C[C@H](C)[C@H](CC[C@@H]3C[C@@H](O)CC(=O)O3)[C@H]21 [LOVASTATIN] | 9% | 84.3% | 7.8% | 83.9% | inactive | 6.3% | 16.3% | 74.7% | 10.8% |  | 4.9% | 9.8% | 2.5% | 11.2% |  | 84.2% | 4.6% | 89.7% | Toxic | Active | Activity [33]: inactive; TGI [34]: Active; TGI [35]: Active; Activity [36]: inactive; growth inhibition (GI) [37]: Active; TGI [38]: Active; Activity [39]: Active; growth inhibition (GI) [40]: inactive
